Data reported in ChEMBL document CHEMBL3797052 (Eur J Med Chem, 2016).

Experiments:
[1] = Antiproliferative activity against human OVCAR4 cells assessed as cell growth at 10^-6 M after 48 hrs by sulforhodamine B assay; type: functional; settings: OVCAR-4, 48 h, read-out: Activity
NCI-H522 [2] = test: Antiproliferative activity against human NCI-H522 cells assessed as growth inhibition after 48 hrs by sulforhodamine B assay; type: functional; settings: NCI-H522, 48 h
[3] = Antiproliferative activity against human HCT116 cells assessed as cell growth at 10^-8 M after 48 hrs by sulforhodamine B assay; type: functional; settings: HCT-116, 48 h, read-out: Activity
NCI-H460 = test: Antiproliferative activity against human NCI-H460 cells assessed as cell growth at 10^-6 M after 48 hrs by sulforhodamine B assay; type: functional; settings: NCI-H460, 48 h, read-out: Activity
[4] = Antiproliferative activity against human LOXIMVI cells assessed as growth inhibition after 48 hrs by sulforhodamine B assay; type: functional; settings: LOX IMVI; for CC50: read-out: LC50 (the source's name)
NCI-H522 [5] = test: Antiproliferative activity against human NCI-H522 cells assessed as cell growth at 10^-4 M after 48 hrs by sulforhodamine B assay; type: functional; settings: NCI-H522, 48 h, read-out: Activity
[6] = Antiproliferative activity against human SF268 cells assessed as cell growth at 10^-6 M after 48 hrs by sulforhodamine B assay; type: functional; settings: SF-268, 48 h, read-out: Activity
[7] = Antiproliferative activity against human RPMI8226 cells assessed as cell growth at 10^-7 M after 48 hrs by sulforhodamine B assay; type: functional; settings: RPMI-8226, 48 h, read-out: Activity
[8] = Antiproliferative activity against human OVCAR8 cells assessed as cell growth at 10^-8 M after 48 hrs by sulforhodamine B assay; type: functional; settings: OVCAR-8, 48 h, read-out: Activity
SK-MEL-2 [9] = test: Antiproliferative activity against human SK-MEL-2 cells assessed as cell growth at 10^-7 M after 48 hrs by sulforhodamine B assay; type: functional; settings: SK-MEL-2, 48 h, read-out: Activity
[10] = Antiproliferative activity against human SF539 cells assessed as growth inhibition after 48 hrs by sulforhodamine B assay; type: functional; settings: SF-539, 48 h
[11] = Antiproliferative activity against human SNB19 cells assessed as cell growth at 10^-6 M after 48 hrs by sulforhodamine B assay; type: functional; settings: SNB-19, 48 h, read-out: Activity
[12] = Antiproliferative activity against human UACC62 cells assessed as growth inhibition after 48 hrs by sulforhodamine B assay; type: functional; settings: UACC-62, 48 h; for CC50: read-out: LC50 (the source's name)
[13] = Antiproliferative activity against human IGROV1 cells assessed as cell growth at 10^-8 M after 48 hrs by sulforhodamine B assay; type: functional; settings: IGROV-1, 48 h, read-out: Activity
[14] = Antiproliferative activity against human SF295 cells assessed as cell growth at 10^-4 M after 48 hrs by sulforhodamine B assay; type: functional; settings: SF-295, 48 h, read-out: Activity
[15] = Antiproliferative activity against human SNB75 cells assessed as cell growth at 10^-4 M after 48 hrs by sulforhodamine B assay; type: functional; settings: SNB-75, 48 h, read-out: Activity
[16] = Antiproliferative activity against human Caki1 cells assessed as cell growth at 10^-7 M after 48 hrs by sulforhodamine B assay; type: functional; settings: CAKI-1, 48 h, read-out: Activity
[17] = Antiproliferative activity against human OVCAR8 cells assessed as growth inhibition after 48 hrs by sulforhodamine B assay; type: functional; settings: OVCAR-8, 48 h
EKVX = test: Antiproliferative activity against human EKVX cells assessed as cell growth at 10^-8 M after 48 hrs by sulforhodamine B assay; type: functional; settings: read-out: Activity
A549 = test: Antiproliferative activity against human A549/ATCC cells assessed as growth inhibition after 48 hrs by sulforhodamine B assay; type: functional; settings: A549, 48 h; for CC50: read-out: LC50 (the source's name)
[18] = Antiproliferative activity against human COLO205 cells assessed as cell growth at 10^-4 M after 48 hrs by sulforhodamine B assay; type: functional; settings: COLO 205, 48 h, read-out: Activity
HT-29 = test: Antiproliferative activity against human HT-29 cells assessed as cell growth at 10^-7 M after 48 hrs by sulforhodamine B assay; type: functional; settings: HT-29, 48 h, read-out: Activity
[19] = Antiproliferative activity against human OVCAR4 cells assessed as growth inhibition after 48 hrs by sulforhodamine B assay; type: functional; settings: OVCAR-4, 48 h; for CC50: read-out: LC50 (the source's name)
CCRF-CEM = test: Antiproliferative activity against human CCRF-CEM cells assessed as growth inhibition after 48 hrs by sulforhodamine B assay; type: functional; settings: for CC50: read-out: LC50 (the source's name)
[20] = Antiproliferative activity against human Caki1 cells assessed as cell growth at 10^-8 M after 48 hrs by sulforhodamine B assay; type: functional; settings: CAKI-1, 48 h, read-out: Activity
[21] = Antiproliferative activity against human SNB75 cells assessed as cell growth at 10^-7 M after 48 hrs by sulforhodamine B assay; type: functional; settings: SNB-75, 48 h, read-out: Activity
[22] = Antiproliferative activity against human PC3 cells assessed as cell growth at 10^-4 M after 48 hrs by sulforhodamine B assay; type: functional; settings: PC-3, 48 h, read-out: Activity
[23] = Antiproliferative activity against human RPMI8226 cells assessed as cell growth at 10^-6 M after 48 hrs by sulforhodamine B assay; type: functional; settings: RPMI-8226, 48 h, read-out: Activity
MDA-MB-435 = test: Antiproliferative activity against human MDA-MB-435 cells assessed as cell growth at 10^-8 M after 48 hrs by sulforhodamine B assay; type: functional; settings: MDA-MB-435, 48 h, read-out: Activity
786-0 = test: Antiproliferative activity against human 786-0 cells assessed as cell growth at 10^-8 M after 48 hrs by sulforhodamine B assay; type: functional; settings: 786-0, 48 h, read-out: Activity
[24] = Antiproliferative activity against human Hs 578T cells assessed as growth inhibition after 48 hrs by sulforhodamine B assay; type: functional; settings: for CC50: read-out: LC50 (the source's name)
[25] = Antiproliferative activity against human SF268 cells assessed as cell growth at 10^-7 M after 48 hrs by sulforhodamine B assay; type: functional; settings: SF-268, 48 h, read-out: Activity
SK-MEL-28 = test: Antiproliferative activity against human SK-MEL-28 cells assessed as cell growth at 10^-8 M after 48 hrs by sulforhodamine B assay; type: functional; settings: SK-MEL-28, 48 h, read-out: Activity
hERG (KCNH2) = hERG (KCNH2) (Homo sapiens, UniProt Q12809); test: Inhibition of human ERG assessed as reduction in channel current at 100 uM by automated patch-clamp electrophysiology assay
Sequence of hERG (KCNH2) (Q12809 whole entry): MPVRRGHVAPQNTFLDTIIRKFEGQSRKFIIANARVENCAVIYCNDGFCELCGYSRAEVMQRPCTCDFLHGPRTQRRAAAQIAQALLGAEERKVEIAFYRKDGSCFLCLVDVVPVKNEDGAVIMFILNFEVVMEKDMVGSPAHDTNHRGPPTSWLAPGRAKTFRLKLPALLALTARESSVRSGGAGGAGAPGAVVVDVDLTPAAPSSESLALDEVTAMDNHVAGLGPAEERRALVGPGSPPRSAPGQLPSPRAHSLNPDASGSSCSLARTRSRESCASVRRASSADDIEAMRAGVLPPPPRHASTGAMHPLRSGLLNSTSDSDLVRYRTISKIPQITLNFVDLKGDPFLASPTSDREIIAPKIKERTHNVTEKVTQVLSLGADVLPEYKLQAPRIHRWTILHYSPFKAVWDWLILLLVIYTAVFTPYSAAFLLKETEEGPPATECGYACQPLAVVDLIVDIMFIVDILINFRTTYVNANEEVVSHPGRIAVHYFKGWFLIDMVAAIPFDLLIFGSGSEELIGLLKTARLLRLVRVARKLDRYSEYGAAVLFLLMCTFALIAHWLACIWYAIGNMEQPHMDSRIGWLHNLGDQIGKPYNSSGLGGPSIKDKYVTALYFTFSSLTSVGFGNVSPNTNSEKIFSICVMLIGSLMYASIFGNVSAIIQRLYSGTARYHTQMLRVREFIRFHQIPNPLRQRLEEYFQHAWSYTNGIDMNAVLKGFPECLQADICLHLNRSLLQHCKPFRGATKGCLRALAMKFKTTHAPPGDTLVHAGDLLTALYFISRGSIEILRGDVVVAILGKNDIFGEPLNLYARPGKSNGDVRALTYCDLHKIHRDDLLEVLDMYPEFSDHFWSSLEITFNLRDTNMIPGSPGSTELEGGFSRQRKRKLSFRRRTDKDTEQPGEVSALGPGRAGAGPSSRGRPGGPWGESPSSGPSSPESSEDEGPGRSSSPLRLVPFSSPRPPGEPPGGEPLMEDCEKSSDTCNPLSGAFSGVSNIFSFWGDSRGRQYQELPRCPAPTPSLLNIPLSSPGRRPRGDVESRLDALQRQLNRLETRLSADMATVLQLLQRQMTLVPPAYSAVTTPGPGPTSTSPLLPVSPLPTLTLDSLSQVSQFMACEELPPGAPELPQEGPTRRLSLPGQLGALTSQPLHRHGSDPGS

SK-MEL-2 [26] = test: Antiproliferative activity against human SK-MEL-2 cells assessed as cell growth at 10^-8 M after 48 hrs by sulforhodamine B assay; type: functional; settings: SK-MEL-2, 48 h, read-out: Activity
[27] = Antiproliferative activity against human HCT116 cells assessed as cell growth at 10^-6 M after 48 hrs by sulforhodamine B assay; type: functional; settings: HCT-116, 48 h, read-out: Activity

CNC(=O)c1cc(Oc2ccc3nc(NC(=O)Nc4cc(C(F)(F)F)cc(C(F)(F)F)c4)sc3c2)ccn1
growth at 1 µM [1]: 49%
GI50 (NCI-H522 [2]): 0.534 µM
LC50 (concentration killing 50% of cells) (NCI-H522 [2]): 8.1 µM
TGI (NCI-H522 [2]): 2.28 µM
growth at 0.01 µM [3]: 102%
growth at 1 µM (NCI-H460): 62%
GI50 [4]: 1.21 µM
TGI [4]: 2.53 µM
CC50 [4]: 5.29 µM
growth at 100 µM (NCI-H522 [5]): -67%
growth at 1 µM [6]: 65%
growth at 0.1 µM [7]: 108%
growth at 0.01 µM [8]: 102%
growth at 0.1 µM (SK-MEL-2 [9]): 97%
GI50 [10]: 1.24 µM
LC50 [10]: 6.33 µM
TGI [10]: 2.8 µM
growth at 1 µM [11]: 62%
GI50 [12]: 0.583 µM
TGI [12]: 2.1 µM
CC50 [12]: 5.77 µM
growth at 0.01 µM [13]: 103%
growth at 100 µM [14]: -71%
growth at 100 µM [15]: -75%
growth at 0.1 µM [16]: 94%
GI50 [17]: 1.33 µM
LC50 [17]: 5.47 µM
TGI [17]: 2.69 µM
growth at 0.01 µM (EKVX): 81%
GI50 (A549): 1.3 µM
TGI (A549): 2.67 µM
CC50 (A549): 5.51 µM
growth at 100 µM [18]: -65%
growth at 0.1 µM (HT-29): 97%
GI50 [19]: 0.958 µM
TGI [19]: 2.73 µM
CC50 [19]: 7.58 µM
GI50 (CCRF-CEM): 1.07 µM
TGI (CCRF-CEM): 5.83 µM
CC50 (CCRF-CEM): > 100 µM
growth at 0.01 µM [20]: 91%
growth at 0.1 µM [21]: 82%
growth at 100 µM [22]: -75%
growth at 1 µM [23]: 51%
growth at 0.01 µM (MDA-MB-435): 92%
growth at 0.01 µM (786-0): 92%
GI50 [24]: 1.65 µM
TGI [24]: 4.84 µM
CC50 [24]: > 100 µM
growth at 0.1 µM [25]: 90%
growth at 0.01 µM (SK-MEL-28): 93%
inhibition at 100 µM (hERG (KCNH2)): 30.2%
growth at 0.01 µM (SK-MEL-2 [26]): 90%
growth at 1 µM [27]: 57%

CNC(=O)c1cc(Oc2ccc3nc(NC(=O)c4cc(C(F)(F)F)cc(C(F)(F)F)c4)sc3c2)ccn1
growth at 1 µM [1]: 89%
GI50 (NCI-H522 [2]): 2.82 µM
LC50 (concentration killing 50% of cells) (NCI-H522 [2]): 64.1 µM
TGI (NCI-H522 [2]): 8.77 µM
growth at 0.01 µM [3]: 111%
growth at 1 µM (NCI-H460): 101%
GI50 [4]: 3.39 µM
TGI [4]: 15.1 µM
CC50 [4]: 97.5 µM
growth at 100 µM (NCI-H522 [5]): -61%
growth at 1 µM [6]: 79%
growth at 0.1 µM [7]: 98%
growth at 0.01 µM [8]: 97%
growth at 0.1 µM (SK-MEL-2 [9]): 97%
GI50 [10]: 3.14 µM
LC50 [10]: 71.1 µM
TGI [10]: 14.8 µM
growth at 1 µM [11]: 96%
GI50 [12]: 2.71 µM
TGI [12]: 12.1 µM
CC50 [12]: 80.5 µM
growth at 0.01 µM [13]: 106%
growth at 100 µM [14]: -73%
growth at 100 µM [15]: -51%
growth at 0.1 µM [16]: 91%
GI50 [17]: 3.06 µM
LC50 [17]: 69.9 µM
TGI [17]: 13 µM
growth at 0.01 µM (EKVX): 94%
GI50 (A549): 3.99 µM
TGI (A549): 14.6 µM
CC50 (A549): 61.2 µM
growth at 100 µM [18]: -88%
growth at 0.1 µM (HT-29): 107%
GI50 [19]: 3.12 µM
TGI [19]: 27.2 µM
CC50 [19]: > 100 µM
GI50 (CCRF-CEM): 3.47 µM
TGI (CCRF-CEM): > 100 µM
CC50 (CCRF-CEM): > 100 µM
growth at 0.01 µM [20]: 101%
growth at 0.1 µM [21]: 77%
growth at 100 µM [22]: -42%
growth at 1 µM [23]: 75%
growth at 0.01 µM (MDA-MB-435): 101%
growth at 0.01 µM (786-0): 98%
GI50 [24]: 3.15 µM
TGI [24]: 13.3 µM
CC50 [24]: > 100 µM
growth at 0.1 µM [25]: 97%
growth at 0.01 µM (SK-MEL-28): 97%
growth at 0.01 µM (SK-MEL-2 [26]): 88%
growth at 1 µM [27]: 99%

CNC(=O)c1cc(Oc2ccc(NC(=O)Nc3ccc(Cl)c(C(F)(F)F)c3)cc2)ccn1 [SORAFENIB]
GI50 (NCI-H522 [2]): 2 µM
TGI (NCI-H522 [2]): 6.31 µM
TGI [4]: 3.16 µM
CC50 [4]: 7.94 µM
TGI [10]: 10 µM
TGI [12]: 5.01 µM
CC50 [12]: 20 µM
GI50 [17]: 2.51 µM
TGI [17]: 10 µM
GI50 (A549): 3.16 µM
TGI (A549): 12.6 µM
CC50 (A549): 63.1 µM
GI50 [19]: 3.16 µM
TGI [19]: 12.6 µM
CC50 [19]: 100 µM
GI50 (CCRF-CEM): 2 µM
TGI (CCRF-CEM): 100 µM
CC50 (CCRF-CEM): 100 µM
TGI [24]: 7.94 µM
CC50 [24]: 100 µM
